Measurements: article PMC11728001, “Design, Synthesis, and Biological Evaluation of Novel Urea-Containing Carnosic Acid Derivatives with Anticancer Activity” (International Journal of Molecular Sciences, 2024)

How the values were obtained:
Format in all cases: cell-based
[1] = system: MiaPaca-2 pancreatic cancer cells; assay: MTT cell viability assay, MiaPaca-2; settings: Homo sapiens, MIA PaCa-2, 72 h incubation, mean ± SD
Protocol: (§1) The effect of the compounds on cell viability was evaluated using the MTT assay. HCT116 (3000 cells/well), SW620 (8000 cells/well), SW480 (6000 cells/well), Caco-2 (4000 cells/well), A375 (1500 cells/well), MiaPaca-2 (2000 cells/well), and BJ (10,000 cells/well) cells were seeded in 96-well plates. After 24 h, the growth medium was replaced with a fresh medium containing the desired concentration of the compound or DMSO (control). After 72 h of incubation, the supernatant was removed and 100 µL of a mixture (1:1) of filtered MTT solution (1 mg/mL in PBS) with FBS-free medium was added to each well. After 1 h of incubation at 37 °C, the mixture was removed and 100 µL of DMSO was added to each well to dissolve the formed formazan crystals. Absorbance was immediately measured at 570 nm using a Benchmark Plus Microplate Reader (Bio-Rad Laboratories, Hercules, CA, USA). IC50 values were calculated using GraphPad Prism 9 software (GraphPad Software, San Diego, CA, USA) and expressed as the mean ± standard deviation (SD) of at least three independent experiments.

SW480 cells = assay: Apoptosis assay (annexin V-FITC/PI, FACS); settings: SW480, IC50 concentration
Excerpt: Apoptosis can be detected by staining the cells with annexin V and propidium iodide (PI). […] However, during the early stages of apoptosis, the membrane flips and PS is exposed on the outer side of the cell membrane. Thus, annexin V fluorescently labeled with fluorescein isothiocyanate (FITC) binds with high affinity for PS. In late apoptosis/necrosis, the cells experience a ruptured membrane, allowing Annexin V to interact with the entire cell membrane. At this stage, the nuclear membrane loses its integrity, which facilitates the binding of PI to DNA. Thus, this dual-staining protocol allows for the detection and quantification of live cells (annexin V−, PI−), early apoptotic cells (annexin V+, PI−), and late apoptotic/necrotic cells (annexin V+, PI+).
SW480 cells (1.68 × 10^5 cells/well) were seeded in 6-well plates and incubated at 37 °C for 24 h. Subsequently, the growth medium was replaced with fresh medium (control) or compound 14 at the previously determined IC50 concentration. Following incubation for 24, 48, or 72 h, the adherent cells were gently detached by trypsinization, washed with DPBS, and collected by centrifugation. Similarly, the cells in suspension were washed with DPBS and collected by centrifugation, along with the adhered cells. […]

[2] = system: BJ non-tumoral fibroblast cell line; assay: MTT cell viability assay, BJ; settings: 72 h incubation
Protocol: as §1

For `CC(=O)Oc1c(C(C)C)cc2c(c1OC(C)=O)[C@@]1(NC(=O)NCCc3cccc(Cl)c3)CCCC(C)(C)[C@@H]1CC2` [Compound 14, (4bR,8aS)-4b-(3-(3-chlorophenethyl)ureido)-2-isopropyl-8,8-dimethyl-4b,5,6,7,8,8a,9,10-octahydrophenanthrene-3,4-diyl diacetate], the IC50 [1] was 9 ± 0.8 µM, the “increase of cells in late apoptosis/necrosis” value (SW480 cells; 48 and 72 h) was “not sustained” and the “percentage of cells in late apoptosis/necrosis” value (SW480 cells; 24 h, control 6.5%) was 8.3%. For the same compound, the IC50 [2] was over 25 µM.
